Results: ChEMBL document CHEMBL5584239, “Discovery of novel quinoline scaffold selective estrogen receptor degraders (SERDs) for treatment of ER positive breast cancer with enhanced antiproliferative bioactivity through immunogenic cell death (ICD) effects” (Eur J Med Chem, 2024)
Active and inactive are the calls of the source. No cut-off for these calls is given here.

Assays:
Ishikawa = experiment: Antiproliferative activity against human Ishikawa cells at 20 uM incubated for 3 days by MTT assay relative to control; type: functional; conditions: 72 h, time 3 day
[1] = target: T1, Estrogen receptor (Homo sapiens) (UniProt P03372); experiment: Induction of estrogen receptor degradation in human MCF7 cells incubated for 24 hrs by Western blot analysis; type: cell-based; conditions: dose 0.001-10 µM
T1 sequence (whole entry): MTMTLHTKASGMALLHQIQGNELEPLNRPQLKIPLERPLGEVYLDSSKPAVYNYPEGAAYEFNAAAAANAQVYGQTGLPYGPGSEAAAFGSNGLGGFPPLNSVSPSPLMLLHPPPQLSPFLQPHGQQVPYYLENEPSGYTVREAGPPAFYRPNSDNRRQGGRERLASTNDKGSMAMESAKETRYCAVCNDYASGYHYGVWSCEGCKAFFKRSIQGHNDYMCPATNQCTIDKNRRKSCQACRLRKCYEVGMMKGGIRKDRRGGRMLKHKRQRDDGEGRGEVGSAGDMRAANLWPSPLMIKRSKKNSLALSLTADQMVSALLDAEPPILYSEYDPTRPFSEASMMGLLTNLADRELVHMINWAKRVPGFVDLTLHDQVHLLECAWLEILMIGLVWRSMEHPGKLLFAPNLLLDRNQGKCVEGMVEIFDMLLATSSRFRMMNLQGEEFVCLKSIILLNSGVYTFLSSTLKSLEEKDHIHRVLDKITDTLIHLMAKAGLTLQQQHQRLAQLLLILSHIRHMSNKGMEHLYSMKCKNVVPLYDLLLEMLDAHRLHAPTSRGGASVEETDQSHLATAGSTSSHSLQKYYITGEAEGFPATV

[2] = target: T1, Estrogen receptor (Homo sapiens); experiment: Induction of estrogen receptor degradation in MG-132-treated human MCF7 cells at 10 uM incubated for 4 to 6 hrs by Western blot analysis; type: cell-based; conditions: time 4-6 hrs
[3] = target: T1, Estrogen receptor (Homo sapiens); experiment: Induction of estrogen receptor degradation in human MCF7 cells at 10 uM by fluorescence microscopy; type: cell-based
[4] = target: T1, Estrogen receptor (Homo sapiens); experiment: Induction of estrogen receptor degradation in estradiol-stimulated human MCF7 cells assessed as decrease in PGR mRNA level incubated for 24 hrs by RT-qPCR analysis; type: cell-based; conditions: dose 1-10 µM
[5] = target: T1, Estrogen receptor (Homo sapiens); experiment: Induction of estrogen receptor degradation in estradiol-stimulated human MCF7 cells assessed as decrease in TFF1 mRNA level incubated for 24 hrs by RT-qPCR analysis; type: cell-based; conditions: dose 1-10 µM
[6] = Tmax in rat at 5 mg/kg, iv measured for 1 to 24 hrs by LC-MS analysis; type: ADME, organism-based; conditions: in vivo, time 1-24 hrs
[7] = Cmax in rat at 5 mg/kg, iv measured for 1 to 24 hrs by LC-MS analysis; type: ADME, organism-based; conditions: in vivo, time 1-24 hrs
[8] = C0 in rat at 5 mg/kg, iv measured for 1 to 24 hrs by LC-MS analysis; type: ADME, organism-based; conditions: in vivo, time 1-24 hrs
[9] = AUC (0 to infinity) in rat at 5 mg/kg, iv measured for 1 to 24 hrs by LC-MS analysis; type: ADME, organism-based; conditions: in vivo, time 1-24 hrs
[10] = Apparent volume of distribution in rat at 5 mg/kg, iv measured for 1 to 24 hrs by LC-MS analysis; type: ADME, organism-based; conditions: in vivo, time 1-24 hrs, read-out: Vz
[11] = Clearance in rat at 5 mg/kg, iv measured for 1 to 24 hrs by LC-MS analysis; type: ADME, organism-based; conditions: in vivo, time 1-24 hrs
[12] = MRT (0 to t) in rat at 5 mg/kg, iv measured for 1 to 24 hrs by LC-MS analysis; type: ADME, organism-based; conditions: in vivo, time 1-24 hrs
[13] = MRT (0 to infinity) in rat at 5 mg/kg, iv measured for 1 to 24 hrs by LC-MS analysis; type: ADME, organism-based; conditions: in vivo, time 1-24 hrs
[14] = Half life in rat at 20 mg/kg, po measured for 1 to 24 hrs by LC-MS analysis; type: ADME, organism-based; conditions: in vivo, time 1-24 hrs
[15] = Cmax in rat at 20 mg/kg, po measured for 1 to 24 hrs by LC-MS analysis; type: ADME, organism-based; conditions: in vivo, time 1-24 hrs
[16] = AUC (0 to infinity) in rat at 20 mg/kg, po measured for 1 to 24 hrs by LC-MS analysis; type: ADME, organism-based; conditions: in vivo, time 1-24 hrs
[17] = MRT (0 to t) in rat at 20 mg/kg, po measured for 1 to 24 hrs by LC-MS analysis; type: ADME, organism-based; conditions: in vivo, time 1-24 hrs
MCF7 [18] = experiment: Synergistic antiproliferative activity against human MCF7 cells at 0.1 to 10000 nM incubated for 5 days in presence of Ribociclib by MTT assay; type: functional, cell-based; conditions: dose 0.1-10000 nM, time 5.0 day
MCF7 [19] = experiment: Induction of cell cycle arrest at G0/G1 phase in human MCF7 cells at 10 uM incubated for 24 hrs by PI/RNase staining based flow cytometry (reference value: 53.5 +/- 1.96 %); type: functional
MCF7 [20] = experiment: Induction of endoplasmic reticulum stress effect in human MCF7 cells assessed as change in calnexin level at 10 uM incubated for 3 to 24 hrs by Western blot analysis; type: functional, cell-based; conditions: time 3-24 hrs
MCF7 [21] = experiment: Induction of endoplasmic reticulum stress effect in human MCF7 cells assessed as change in ATF4 level at 10 uM incubated for 3 to 24 hrs by Western blot analysis; type: functional, cell-based; conditions: time 3-24 hrs
MCF7 [22] = experiment: Induction of endoplasmic reticulum stress effect in human MCF7 cells assessed as change in pEIF-2alpha level at 10 uM incubated for 3 to 24 hrs by Western blot analysis; type: functional, cell-based; conditions: time 3-24 hrs
MCF7 [23] = experiment: Induction of endoplasmic reticulum stress effect in human MCF7 cells assessed as change in calnexin level at 10 uM incubated for 24 hrs by immunofluorescence based analysis; type: functional, cell-based
MCF7 [24] = experiment: Induction of endoplasmic reticulum stress effect in human MCF7 cells assessed as change in CHOP level at 10 uM incubated for 24 hrs by immunofluorescence based analysis; type: functional, cell-based
MCF7 [25] = experiment: Induction of immunogenic cell death in human MCF7 cells assessed as CRT translocation at 10 uM by FITC staining based flow cytometry; type: functional
MCF7 [26] = experiment: Induction of immunogenic cell death in human MCF7 cells assessed as HMGB1 release from nucleus at 10 uM by Western blot analysis; type: functional, cell-based
MCF7 [27] = experiment: Induction of immunogenic cell death in human MCF7 cells assessed as ATP release […] at 10 uM; type: functional, cell-based
[28] = Toxicity in nude mouse model xenografted with human MCF7 cells assessed as morphological change in heart at 60 mg/kg, po administered daily via gavage for 30 days by H and E staining based analysis; type: organism-based; conditions: in vivo, 720 h, time 30 day
[29] = Toxicity in nude mouse model xenografted with human MCF7 cells assessed as morphological change in kidney at 60 mg/kg, po administered daily via gavage for 30 days by H and E staining based analysis; type: organism-based; conditions: in vivo, 720 h, time 30 day
MCF7 [30] = experiment: Antitumor activity against human MCF7 cells xenografted in nude mouse model assessed as reduction in Ki67 level at 60 mg/kg, po administered daily via gavage for 30 days in presence of ribociclib by IHC analysis; type: functional, organism-based; conditions: time 30.0 day
MCF7 [31] = experiment: Antitumor activity against human MCF7 cells xenografted in nude mouse model assessed as reduction in PR level at 60 mg/kg, po administered daily via gavage for 30 days in presence of ribociclib by IHC analysis; type: functional, organism-based; conditions: time 30.0 day
Uterus = experiment: Effect on immature Sprague-Dawley rat uterus assessed as reduction in uterine wet weight at 60 mg/kg, po qd for 2 days by H and E staining based analysis; type: functional, organism-based; conditions: time 2.0 day

Activity [1]: Dose-Dependent Effect
Activity [2]: inactive
Activity [3]: Active
Activity [4]: Dose-Dependent Effect
Activity [5]: Dose-Dependent Effect
Tmax [6]: 4.98 min
Cmax [7]: 10400 ng/mL
C0 [8]: 31300 ng/mL
AUC(0-inf) [9]: 3050 ng·h/mL
Vd [10]: 2 L/kg
clearance [11]: 27.8 mL/min/kg
MRT last [12]: 7.2 min
MRT inf [13]: 7.56 min
half-life [14]: 191 min
Cmax [15]: 501 ng/mL
AUC(0-inf) [16]: 649 ng·h/mL
MRT last [17]: 131 min
Compound: CCc1ccccc1C(=O)c1cnc2cc(O)ccc2c1Oc1ccc(/C=C/C(=O)O)cc1
inhibition at 20 µM (Ishikawa): 14%
Activity (MCF7 [18]): Active
Activity (MCF7 [19]): 59.7%
Activity (MCF7 [20]): Active
Activity (MCF7 [21]): Active
Activity (MCF7 [22]): Active
Activity (MCF7 [23]): Active
Activity (MCF7 [24]): Active
Activity (MCF7 [25]): Active
Activity (MCF7 [26]): Active
Activity (MCF7 [27]): Active
Activity [28]: Non-Toxic
Activity [29]: Non-Toxic
Activity (MCF7 [30]): Active
Activity (MCF7 [31]): Active
Activity (Uterus): inactive
